Laboratory results from US20070259894A1, “Use of Atazanavir for Improving the Pharmacokinetics of Drugs Metabolized by Ugt1a1” (priority 2004, published 2007).
Like-named read-outs stand apart in the source and are kept apart here.

What was measured:
[1] = Hygroscopicity by vapor sorption analysis; type: physicochemical; details: equilibrated at 95% RH at 25° C.
Protocol: Hygroscopicity data was obtained on a VTI Symmetrical Vapor Sorption Analyzer Model SGA-1. Data was collected at room temperature from 5-95% relative humidity and back, 5% relative humidity change per step. Equilibrium conditions were 0.01 weight percent change in 5 minutes with a maximum equilibration time of 180 minutes. […] When equilibrated back down to 5% RH, the material returned back to approximately its dry weight.

[2] = test system: glucuronidation of Compound A by rat liver microsomes; assay: Inhibition by atazanavir of glucuronidation of Compound A by rat liver microsomes; type: biochemical; details: atazanavir at a concentration of 50 μM
Protocol: The IC50 value of atazanavir for inhibition of glucuronidation of Compound A by human liver microsomes was determined using a pool of human liver microsomes (obtained from Xenotech LLC, Lenexa, Kans.). Compound A (as the potassium salt) was added to human liver microsomes (1.0 mg/mL) in a buffer consisting of 0.1 M potassium phosphate buffer (pH=7.4), 5 mM magnesium chloride, 10 μg/mL alamethicin, and 10 mM D-saccharic acid 1,4-lactone. The mixture of Compound A and the buffered microsomes (0.5 mL) was incubated at Compound A's Km (200 μM). UDPGA was added to the incubated sample to a concentration of 4 mM to initiate the glucuronidation reaction, which was stopped after 25 minutes (37° C.) with 2 volumes (i.e., 1 mL) of acetonitrile containing 1.5 μM of Compound B as an internal standard for the subsequent LC/MS analysis. Each of the samples was then centrifuged and the resulting supernatant was diluted 1:1 with 0.1% formic acid in water and a 10 μL aliquot was injected onto the LC/MS to determine the amount of glucuronide formation. […]
The IC50 value of atazanavir for inhibition of glucuronidation of Compound A in the presence of rat liver microsomes was determined using a procedure similar to that just described above for human liver microsomes.

[3] = In vivo human studies: plasma PK of Compound A with and without atazanavir; set-up: species or system healthy human male volunteers; details: for half-life: male, plasma, oral, read-out: alpha phase half-life (converted)
Protocol: The protocol was a 2-period, fixed sequence study in healthy human male volunteers to examine the influence of multiple doses of atazanavir on a single dose of Compound A. In Period 1, 12 subjects received a single oral dose of 100 mg of Compound A (i.e., a tablet as described in Part B of Example 3) (N=10) or placebo (N=2). In Period 2, the same 12 subjects were administered 400 mg atazanavir once daily in an open-label fashion (capsules) for 9 days. On Day 7, the subjects were administered atazanavir in combination with a single oral dose of 100 mg of Compound A (tablet) or placebo (the same subjects received placebo in both study periods). All doses were administered following a moderate-fat meal. Plasma PK samples were collected for 72 hours following the dose of Compound A in both periods.
Sample preparation and analysis: The plasma samples were extracted using 96-well liquid-liquid extraction. Plasma extracts were injected onto an Ace C18 (50×3.0 mm, 3 μm, titanium rits) HPLC column and analyzed under isocratic conditions with a mobile phase consisting of 42.5/57.5 (v/v %) 0.1 mM EDTA in 0.1% formic acid/methanol, at a flow rate of 0.5 mL/minute. The sample extracts were ionized using an APCI interface and were monitored by MRM in the positive ionization mode. The dynamic range of the LC/MS/MS assay was 2-1000 ng/mL based on a 200 μL aliquot of human plasma.
PK Calculations: Area under the curve for a plot of plasma concentration v. time to last detectable concentration (AUC0-last), was calculated using a non-compartmental model and the Linear Up/Log Down calculation method in WinNonlin Version 4.1. Data points after Cmax were fitted to a biexponential equation (A*exp(−αt)+B*exp(−βt)) using WinNonlin v4.1, and AUC values were extrapolated to infinity according to the following equation: […]=AUC0-last+Clast/β, where Clast is the last detectable concentration and β comes from the above-noted biexponential equation. Observed maximum plasma concentration (Cmax), time of Cmax (Tmax), and plasma concentration at 12 hr post dosing (C12hr) were determined by inspection.

[4] = In vivo rat studies: plasma levels of Compound A with and without atazanavir; set-up: species or system Male Sprague-Dawley rats; details: for AUC / Cmax: male, Sprague-Dawley, plasma
Protocol: Male Sprague-Dawley rats (4 rats/group) weighing approximately 300 grams each were given orally either 0.5% methylcellulose in water (control group) or atazanavir in 0.5% methylcellulose once a day for three days. The atazanavir daily doses were 50 mg/kg and were administered in 0.5% methylcellulose at 5 mL/kg. On day four the control rats were dosed with 10 mg/kg of Compound A in the form of a potassium salt in 0.5% methylcellulose while the treatment group received atazanavir followed by an oral dose of 10 mg/kg of Compound A (as potassium salt) in 0.5% methylcellulose. Blood samples were taken from all rats in treatment and control groups at 0, 0.25, 0.5, 1, 2, 4, 6, 8, and 24 hours post dose on day 4. Plasma levels of Compound A were determined by LC-MS/MS as follows:
UDP-glucuronosyltransferase activity was determined by measuring the formation of the glucuronide of Compound A. HPLC analysis was carried out on an Agilent HP 1100 gradient system using the following parameters: column=Phenomenex Luna C18-2 (2 mm×150 mm, 5 μm); mobile phase=0.1% formic acid in water (solvent A) and 0.1% formic acid in acetonitrile (solvent B); flow rate=0.2 mL/min; procedure=the initial solvent composition of 10% B was increased to 80% B over 10 minutes, followed by holding solvent B constant at 80% for 3 minutes, and then returning to initial conditions for 6 minutes. The HPLC system was interfaced with a Finnigan TSQ Quantum tandem mass spectrometer. Mass spectral analyses were carried out using electrospray ionization (ESI) in the positive ion mode. The temperature for the ion transfer tube was 320° C. and the ESI ionizing voltage was maintained at 4.4 kV for all analyses. Tandem mass spectrometry (MS/MS) was based on collision-induced dissociation (CID) of ions entering the rf-only octapole region where argon was used as the collision gas at a pressure of 0.8 mtorr. A collision offset at −22 eV was used for MS/MS analyses. The CID transitions used were m/z=621.1→445.1 (Compound A glucuronide) and 431.2→306.1 (Compound B).

[5] = single oral 100 mg Compound A tablet, atazanavir 400 mg once daily, moderate-fat meal
[6] = Compound A control group, oral 10 mg/kg (K salt), no atazanavir
[7] = oral Compound A 10 mg/kg (K salt) on day 4 with oral atazanavir 50 mg/kg once a day

Cc1nnc(C(=O)NC(C)(C)c2nc(C(=O)NCc3ccc(F)cc3)c([O-])c(=O)n2C)o1.[K+]
weight increase (hygroscopicity) [1]: 1.8%

COC(=O)N[C@H](C(=O)N[C@@H](Cc1ccccc1)[C@@H](O)CN(Cc1ccc(-c2ccccn2)cc1)NC(=O)[C@@H](NC(=O)OC)C(C)(C)C)C(C)(C)C (relative stereo) [atazanavir, [3S-(3R*, 8′R*, 9′R*, 12R*)]-3,12-bis(1,1-dimethylethyl)-8-hydroxy-4,11-dioxo-9-(phenylmethyl)-6-[[4-(2-pyridinyl)phenylmethyl]2,5,6,10,13-pentaazatetradecanedioic] acid, dimethyl ester]
inhibition of the glucuronidation of Compound A [2]: 41%

Cc1nnc(C(=O)NC(C)(C)c2nc(C(=O)NCc3ccc(F)cc3)c(O)c(=O)n2C)o1 [Compound A, N-(4-fluorobenzyl)-5-hydroxy-1-methyl-2-(1-methyl-1-{[(5-methyl-1,3,4-oxadiazol-2-yl)carbonyl]amino}ethyl)-6-oxo-1,6-dihydroxypyrimidine-4-carboxamide]
half-life ([3]; 100 mg Compound A alone): 1.1 h
half-life ([3]; 100 mg Compound A in the presence of atazanavir 400 mg once daily): 1.4 h
AUC0-last GMR in the presence versus absence of atazanavir [3, 5]: 1.73
Cmax GMR in the presence versus absence of atazanavir [3, 5]: 1.53
geometric mean ratio (GMR) 12 hr concentration in the presence versus absence of atazanavir [3, 5]: 1.96
increase of plasma levels of Compound A by atazanavir ([4]; atazanavir 50 mg/kg plus Compound A 10 mg/kg versus Compound A alone): about 3 fold
AUC [4, 6]: 2.9 ± 0.6 µM·h
Cmax [4, 6]: 2.3 ± 0.9 µM
AUC [4, 7]: 9.9 ± 3.7 µM·h
Cmax [4, 7]: 7.2 ± 6.1 µM
